This passage reports inhibition results from patent US20120121540A1 (priority 2007, published 2012).

The experiment can be described thus: HCV replicon assay (luciferase reporter, ET cell line). The format is cell-based. The following applies: Hepatitis C virus, HCV replicon luciferase activity in ET cells. As for the experimental part: A cell line, ET (Huh-lucubineo-ET) is used for screening of compounds for inhibiting HCV RNA dependent RNA polymerase. The ET cell line is stably transfected with RNA transcripts harboring a I389 luc-ubi-neo/NS3-3′/ET; replicon with firefly luciferase-ubiquitin-neomycin phosphotransferase fusion protein and EMCV-IRES driven NS3-5B polyprotein containing the cell culture adaptive mutations (E1202G; T1280I; K1846T) (Krieger at al, 2001 and unpublished). The ET cells are grown in DMEM (Dulbeco's Modified Eagle's Medium), supplemented with 10% fetal calf serum, 2 mM Glutamine, Penicillin (100 IU/mL)/Streptomycin (100 μg/mL), 1× nonessential amino acids, and 250 μg/mL G418 (“Geneticin”). They are all available through Life Technologies (Bethesda, Md.). The cells are plated at 0.5−1.0×10^4 cells/well in the 96 well plates and incubated for 24 hrs before adding test compound. The compounds are added to the cells to achieve a final concentration of 0.1 nM to 50 μm and a final DMSO (dimethylsulfoxide) concentration of 0.5%. Luciferase activity is measured 48-72 hours later by adding a lysis buffer and the substrate (Catalog number Glo-lysis buffer E2661 and Bright-Glo luciferase system E2620 Promega, Madison, Wis.). Cells should not be too confluent during the assay. Percent inhibition of replication data is plotted relative to no compound control. Under the same condition, cytotoxicity of the compounds are determined using cell proliferation reagent, WST-1 (Roche, Germany). The compounds showing antiviral activities, but no significant cytotoxicities are chosen to determine EC50 and TC50. For these determinations, a 10 point, 2-fold serial dilution for each compound was used, which spans a concentration range of 1000 fold. EC50 and similarly TC50 values were calculated by fitting % inhibition at each concentration to the following equation:
% inhibition=100%/[(EC50/[I])^b+1]
where b is Hill's coefficient.
% inhibition values at a specific concentration, […] for example, can also be derived from the equation above.
In general terms: In antiviral work, replicon cells carry a viral genome segment that copies itself.
In general, inhibition refers to the relative decrease from the control value, in per cent. In turn, `CN(C)CCNC(=O)C(NC(=O)c1nc2c(C(F)(F)F)cc(-c3ccco3)cn2c1Cl)c1cccs1` (stereo not shown) [Compound 172, 3-Chloro-6-furan-2-yl-8-trifluoromethyl-imidazo[1,2-a]pyridine-2-carboxylic acid [(2-dimethylamino-ethylcarbamoyl)-thiophen-2-yl-methyl]-amide] yielded an inhibition at 10 µM of 100%.

Molecule `O=C(NCc1ccsc1)c1nc2c(C(F)(F)F)cc(-c3ccco3)cn2c1Cl` [Compound 173, 3-Chloro-6-furan-2-yl-8-trifluoromethyl-imidazo[1,2-a]pyridine-2-carboxylic acid (thiophen-3-ylmethyl)-amide] came in with an inhibition at 10 µM of 95.2%.

As for `O=C(NCc1ccccc1)c1nc2c(C(F)(F)F)cc(-c3ccco3)cn2c1Cl` [Compound 174, 3-Chloro-6-furan-2-yl-8-trifluoromethyl-imidazo[1,2-a]pyridine-2-carboxylic acid benzylamide], the inhibition at 10 µM worked out at 85.7%.

In turn, `O=C(NCc1cccs1)c1nc2c(C(F)(F)F)cc(-c3cccs3)cn2c1Cl` [Compound 175, 3-Chloro-6-thiophen-2-yl-8-trifluoromethyl-imidazo[1,2-a]pyridine-2-carboxylic acid (thiophen-2-ylmethyl)-amide] came in with an inhibition at 10 µM of 99.4%.

`O=C(NCc1cccs1)c1nc2c(C(F)(F)F)cc(-c3ccc(Cl)s3)cn2c1Cl` [Compound 176, 3-Chloro-6-(5-chloro-thiophen-2-yl)-8-trifluoromethyl-imidazo[1,2-a]pyridine-2-carboxylic acid (thiophen-2-ylmethyl)-amide] had an inhibition at 10 µM of 96.8%.

The molecule `O=C(NCc1cccs1)c1nc2c(C(F)(F)F)cc(-c3ccccc3)cn2c1Cl` [Compound 177, 3-Chloro-6-phenyl-8-trifluoromethyl-imidazo[1,2-a]pyridine-2-carboxylic acid (thiophen-2-ylmethyl)-amide] came in with an inhibition at 10 µM of 93.2%.

`O=C(NCc1cccs1)c1nc2c(C(F)(F)F)cc(-c3ccc(F)cc3)cn2c1Cl` [Compound 178, 3-Chloro-6-(4-fluoro-phenyl)-8-trifluoromethyl-imidazo[1,2-a]pyridine-2-carboxylic acid (thiophen-2-ylmethyl)-amide] yielded an inhibition at 10 µM of 75.2%.

On to `O=C(NCc1ccccc1C(F)(F)F)c1nc2c(C(F)(F)F)cc(-c3ccco3)cn2c1Cl` [Compound 179, 3-Chloro-6-furan-2-yl-8-trifluoromethyl-imidazo[1,2-a]pyridine-2-carboxylic acid 2-trifluoromethyl-benzylamide], for which the inhibition at 10 µM is 37.5%.

Take `O=C(NCc1cccc(C(F)(F)F)c1)c1nc2c(C(F)(F)F)cc(-c3ccco3)cn2c1Cl` [Compound 180, 3-Chloro-6-furan-2-yl-8-trifluoromethyl-imidazo[1,2-a]pyridine-2-carboxylic acid 3-trifluoromethyl-benzylamide]: testing at 10 µM gave an inhibition of 20.4%.

`O=C(NCc1ccc(C(F)(F)F)cc1)c1nc2c(C(F)(F)F)cc(-c3ccco3)cn2c1Cl` [Compound 181, 3-Chloro-6-furan-2-yl-8-trifluoromethyl-imidazo[1,2-a]pyridine-2-carboxylic acid 4-trifluoromethyl-benzylamide] gave an inhibition at 10 µM of 48.2%.

For the molecule `O=C(NCc1nccs1)c1nc2c(C(F)(F)F)cc(-c3ccco3)cn2c1Cl` [Compound 182, 3-Chloro-6-furan-2-yl-8-trifluoromethyl-imidazo[1,2-a]pyridine-2-carboxylic acid (thiazol-2-ylmethyl)-amide], at 10 µM the inhibition was 80.8%.

Take `O=C(NCC1CCCO1)c1nc2c(C(F)(F)F)cc(-c3ccco3)cn2c1Cl` (stereo not shown) [Compound 184, 3-Chloro-6-furan-2-yl-8-trifluoromethyl-imidazo[1,2-a]pyridine-2-carboxylic acid (tetrahydro-furan-2-ylmethyl)-amide]: the inhibition at 10 µM amounted to 84.4%.

Molecule `O=C(NCCc1cccs1)c1nc2c(C(F)(F)F)cc(-c3ccco3)cn2c1Cl` [Compound 185, 3-Chloro-6-furan-2-yl-8-trifluoromethyl-imidazo[1,2-a]pyridine-2-carboxylic acid (2-thiophen-2-yl-ethyl)-amide] gave an inhibition at 10 µM of 95.7%.

`O=C(c1nc2c(C(F)(F)F)cc(-c3ccco3)cn2c1Cl)N1CCC(c2ccccc2)C1` (stereo not shown) [Compound 186, (3-Chloro-6-furan-2-yl-8-trifluoromethyl-imidazo[1,2-a]pyridin-2-yl)-(3-phenyl-pyrrolidin-1-yl)-methanone] had an inhibition at 10 µM of 96%.

Molecule `O=C(NC1CCc2ccccc21)c1nc2c(C(F)(F)F)cc(-c3ccco3)cn2c1Cl` (stereo not shown) [Compound 187, 3-Chloro-6-furan-2-yl-8-trifluoromethyl-imidazo[1,2-a]pyridine-2-carboxylic acid indan-1-ylamide] showed an inhibition at 10 µM of 34.2%.

Regarding `O=C(c1nc2c(C(F)(F)F)cc(-c3ccco3)cn2c1Cl)N1CCCC1c1cccs1` (stereo not shown) [Compound 189, (3-Chloro-6-furan-2-yl-8-trifluoromethyl-imidazo[1,2-a]pyridin-2-yl)-(2-thiophen-2-yl-pyrrolidin-1-yl)-methanone], at 10 µM the inhibition was 97.3%.

As to `COc1ccccc1CNC(=O)c1nc2c(C(F)(F)F)cc(-c3ccco3)cn2c1Cl` [Compound 190, 3-Chloro-6-furan-2-yl-8-trifluoromethyl-imidazo[1,2-a]pyridine-2-carboxylic acid 2-methoxy-benzylamide], the inhibition at 10 µM stood at 68.1%.

Molecule `COc1cccc(CNC(=O)c2nc3c(C(F)(F)F)cc(-c4ccco4)cn3c2Cl)c1` [Compound 191, 3-Chloro-6-furan-2-yl-8-trifluoromethyl-imidazo[1,2-a]pyridine-2-carboxylic acid 3-methoxy-benzylamide] showed an inhibition at 10 µM of 2.3%.

Molecule `COc1ccc(CNC(=O)c2nc3c(C(F)(F)F)cc(-c4ccco4)cn3c2Cl)cc1` [Compound 192, 3-Chloro-6-furan-2-yl-8-trifluoromethyl-imidazo[1,2-a]pyridine-2-carboxylic acid 4-methoxy-benzylamide] displayed an inhibition at 10 µM of 73.9%.

Molecule `O=C(NCc1cccs1)c1nc2c(C(F)(F)F)cc(-c3ccccc3)cn2c1C(F)(F)F` [Compound 193, 6-Phenyl-3,8-bis-trifluoromethyl-imidazo[1,2-a]pyridine-2-carboxylic acid (thiophen-2-ylmethyl)-amide] displayed an inhibition at 10 µM of 82.3%.

The molecule `CCc1c(C(=O)NCc2cccs2)nc2c(C(F)(F)F)cc(-c3ccco3)cn12` [Compound 194, 3-Ethyl-6-furan-2-yl-8-trifluoromethyl-imidazo[1,2-a]pyridine-2-carboxylic acid (thiophen-2-ylmethyl)-amide] showed an inhibition at 10 µM of 89.5%.

`O=C(NCc1cccs1)c1nc2c(C(F)(F)F)cc(-c3cccc(F)c3)cn2c1Cl` [Compound 196, 3-Chloro-6-(3-fluoro-phenyl)-8-trifluoromethyl-imidazo[1,2-a]pyridine-2-carboxylic acid (thiophen-2-ylmethyl)-amide] showed an inhibition at 10 µM of 94%.

For `O=C(NCc1cccs1)c1nc2c(C(F)(F)F)cc(-c3ccccc3F)cn2c1Cl` [Compound 197, 3-Chloro-6-(2-fluoro-phenyl)-8-trifluoromethyl-imidazo[1,2-a]pyridine-2-carboxylic acid (thiophen-2-ylmethyl)-amide], testing at 10 µM gave an inhibition of 90.6%.

`O=C(NCc1cccs1)c1nc2c(C(F)(F)F)cc(-c3ccc(F)c(F)c3)cn2c1Cl` [Compound 198, 3-Chloro-6-(3,4-difluoro-phenyl)-8-trifluoromethyl-imidazo[1,2-a]pyridine-2-carboxylic acid (thiophen-2-ylmethyl)-amide] registered an inhibition at 10 µM of 83.2%.

Take `O=C(NCc1cccs1)c1nc2c(C(F)(F)F)cc(-c3ccc(C(F)(F)F)cc3)cn2c1Cl` [Compound 199, 3-Chloro-8-trifluoromethyl-6-(4-trifluoromethyl-phenyl)-imidazo[1,2-a]pyridine-2-carboxylic acid (thiophen-2-ylmethyl)-amide]: the inhibition at 10 µM came to 41%.

In turn, `O=C(NCc1cccs1)c1nc2c(C(F)(F)F)cc(-c3ccsc3)cn2c1-c1ccsc1` [Compound 200, 3,6-Di-thiophen-3-yl-8-trifluoromethyl-imidazo[1,2-a]pyridine-2-carboxylic acid (thiophen-2-ylmethyl)-amide] displayed an inhibition at 10 µM of 91.6%.

The molecule `O=C(NCc1ccccc1F)c1nc2c(C(F)(F)F)cc(-c3ccco3)cn2c1Cl` [Compound 201, 3-Chloro-6-furan-2-yl-8-trifluoromethyl-imidazo[1,2-a]pyridine-2-carboxylic acid 2-fluoro-benzylamide] had an inhibition at 10 µM of 72.4%.

On to `O=C(NCc1ccccc1OC(F)(F)F)c1nc2c(C(F)(F)F)cc(-c3ccco3)cn2c1Cl` [Compound 202, 3-Chloro-6-furan-2-yl-8-trifluoromethyl-imidazo[1,2-a]pyridine-2-carboxylic acid 2-trifluoromethoxy-benzylamide], for which the inhibition at 10 µM is 78.1%.
